Measurements published in publication PMC3883289, “DER containing two consecutive GTP-binding domains plays an essential role in chloroplast ribosomal RNA processing and ribosome biogenesis in higher plants” (Journal of Experimental Botany, 2013).

Molecular target: T1, NbDER (MBP:NbDER) (Nicotiana benthamiana, UniProt R4N342, S369A)
T1 construct: gene YphC; without N-terminal chloroplast transit peptide (Met-1 to Ser-60); N-terminal MBP tag kept; E. coli; precursor 651 residues; GD1, GD2 and CTD present; fusion proteins approximately 60-107 kDa
Assay: phosphate release, Biomol green
Format: biochemical
Conditions: 1 mM GTP, 3 uM protein, HEPES pH 8, 1 mM Mg (printed MgCl4), room temperature, 18 h

T1 sequence (R4N342 entry or part of it S369A): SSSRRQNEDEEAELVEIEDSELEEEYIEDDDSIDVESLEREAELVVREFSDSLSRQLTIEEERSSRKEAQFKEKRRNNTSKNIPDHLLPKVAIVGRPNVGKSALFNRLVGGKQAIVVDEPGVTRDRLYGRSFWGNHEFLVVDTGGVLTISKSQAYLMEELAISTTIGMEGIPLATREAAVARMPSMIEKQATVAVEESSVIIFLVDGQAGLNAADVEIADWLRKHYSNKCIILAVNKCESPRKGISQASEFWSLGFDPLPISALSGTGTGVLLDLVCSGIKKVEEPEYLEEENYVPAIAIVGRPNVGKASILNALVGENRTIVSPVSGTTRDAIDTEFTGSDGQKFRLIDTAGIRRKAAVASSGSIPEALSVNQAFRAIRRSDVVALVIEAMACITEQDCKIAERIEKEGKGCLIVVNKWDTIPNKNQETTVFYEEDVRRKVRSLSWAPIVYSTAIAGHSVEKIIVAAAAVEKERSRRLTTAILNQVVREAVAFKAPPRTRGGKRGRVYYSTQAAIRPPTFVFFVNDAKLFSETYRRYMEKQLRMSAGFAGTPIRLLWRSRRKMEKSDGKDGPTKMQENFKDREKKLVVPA

Nc1nc2c(ncn2[C@@H]2O[C@H](COP(=O)(O)OP(=O)(O)OP(=O)(O)O)[C@@H](O)[C@H]2O)c(=O)[nH]1 [GTP]
phosphate release, Biomol green: S162A or S369A mutation in NbDER (PM1 or PM2) reduced the k cat values
